Results as given in PMC10759558 (European journal of medicinal chemistry, 2023).

System: HIVLAI
Assay: Antiviral activity in MT-2 human-T-lymphoid cells exposed to HIVLAI
Format: cell-based, HIV-1
Settings: for antiviral activity (in words): MT-2 cells exposed to HIVLAI

SMILES | antiviral activity (in words) | fold reduction in antiviral activity over compound 5c (MT-2 cells, HIVLAI, compared with 5c)
COc1ccc(S(=O)(=O)N(CC(C)C)C[C@@H](O)[C@H](Cc2ccccc2)NC(=O)c2cccc(Nc3nc(-c4cccnc4)cs3)c2C)cc1 [5f, N-((2S,3R)-3-hydroxy-4-((N-isobutyl-4-methoxyphenyl)sulfonamido)-1-phenylbutan-2-yl)-2-methyl-3-((4-(pyridin-3-yl)thiazol-2-yl)amino)benzamide] | did not exhibit any appreciable antiviral activity | –
COc1ccc(S(=O)(=O)N(CC(C)C)C[C@@H](O)[C@H](Cc2ccccc2)NC(=O)c2ccc(C)c(Nc3nc(C)cs3)c2)cc1 [5j, N-((2S,3R)-3-hydroxy-4-((N-isobutyl-4-methoxyphenyl)sulfonamido)-1-phenylbutan-2-yl)-4-methyl-3-((4-methylthiazol-2-yl)amino)benzamide] | did not show any appreciable antiviral activity | –
Cc1ccc(C(=O)N[C@@H](Cc2cc(F)cc(F)c2)[C@H](O)CN(CC(C)C)S(=O)(=O)c2ccc(N)cc2)cc1Nc1nccc(-c2cccnc2)n1 [5d, N-((2S,3R)-4-((4-amino-N-isobutylphenyl)sulfonamido)-1-(3,5-difluorophenyl)-3-hydroxybutan-2-yl)-4-methyl-3-((4-(pyridin-3-yl)pyrimidin-2-yl)amino)benzamide] | – | 3 fold
